The source of these data is DBAASP.

Broadly, the MIC is the lowest concentration found to suppress growth.

In brackets after ≈: the same amount, converted by molar mass. Several values for one entry are separate records, joined by “and”; a condition that tells them apart may be missing. Equal entries are not always repeated.

Some test systems named below: Candida albicans C627; Escherichia coli DC2; Escherichia coli UB1005; Escherichia coli 780; Escherichia coli 804; Staphylococcus aureus 75; Bacillus cereus PCM 2003; Candida krusei DSM 6128; Candida tropicalis.
What all share (assay): ≥ marks a high value that may be exact or a test limit, other limits are often not marked, values filed in µg/mL are converted to µM
In test [1] the test system is Aeromonas salmonicida 97-4.
For test [2], the system named is Aeromonas salmonicida 99-1.
Test [3] has as its system Aeromonas salmonicida A449.
In test [4] the test system is Escherichia coli CGSC 4908.
Test [5] concerns Pseudomonas aeruginosa K799.
Test [6] has as its system Pseudomonas aeruginosa Z61.
The subject of test [7] is Salmonella enterica serovar typhimurium MS7953s.
Test [8] concerns Salmonella enterica subsp. enterica serovar Typhimurium ATCC 14028s.
Test [9] deals with Staphylococcus aureus C623.
In test [10] the test system is Staphylococcus epidermidis C621.
Test [11] concerns Bacillus subtilis ATCC 6633.
Test [12] concerns Candida albicans ATCC 36232.
Test [13] relates to Escherichia coli KCTC 2433.
Test [14] has as its system Klebsiella pneumoniae ATCC 10031.
For test [15], the system named is Micrococcus luteus ATCC 4698.
The test system of test [16] is Proteus mirabilis ATCC 25933.
For test [17], the system named is Pseudomonas aeruginosa ATCC 9027.
In test [18] the test system is Shigella dysenteriae ATCC 9752.
Test [19] relates to Staphylococcus aureus KCTC 3881.
In test [20] the test system is Staphylococcus epidermidis ATCC 12228.
The test system of test [21] is Pseudomonas aeruginosa 3552.
For test [22], the system named is Acinetobacter baumannii 97830.
Test [23] has as its system Acinetobacter baumannii 9931.
Test [24] deals with Acinetobacter baumannii ATCC 19606.
In test [25] the test system is Bacillus subtilis ATCC 23857.
Test [26] relates to Klebsiella pneumoniae ATCC 700603.
Test [27] relates to Pseudomonas aeruginosa 50.
Test [28] concerns Pseudomonas aeruginosa 73.
In test [29] the test system is Pseudomonas aeruginosa ATCC 27853.
The test system of test [30] is Staphylococcus aureus 113.
In test [31] the test system is Staphylococcus aureus ATCC 29213.
In test [32] the test system is Candida albicans ATCC 10231.
Test [33] deals with Candida glabrata DSM 11226.
Test [34] deals with Escherichia coli ATCC 25922.
Test [35] relates to Pseudomonas aeruginosa ATCC 27857.
Test [36] concerns Staphylococcus aureus ATCC 25923.

On to `CC[C@H](C)[C@H](NC(=O)[C@H](CO)NC(=O)[C@H](CCCCN)NC(=O)[C@@H](NC(=O)[C@@H](NC(=O)[C@H](CC(=O)O)NC(=O)[C@H](CCC(=O)O)NC(=O)[C@@H](NC(=O)[C@H](CO)NC(=O)[C@@H](N)CCCNC(=N)N)[C@@H](C)O)[C@@H](C)CC)[C@@H](C)CC)C(=O)N[C@@H](CO)C(=O)NCC(=O)NCC(=O)NCC(=O)N[C@@H](Cc1ccccc1)C(=O)N[C@@H](CC(C)C)C(=O)N[C@@H](CC(N)=O)C(=O)N[C@@H](C)C(=O)N[C@@H](CCSC)C(=O)N[C@@H](CC(N)=O)C(=O)N[C@@H](C)C(C)=O` [RSTEDIIKSISGGGFLNAMNA], for which the MIC (in [1]; in test [2]; in test [3]; against Candida albicans C627; in test [4]; in the test with Escherichia coli DC2) was 29.3 µM (≈ 63.9 µg/mL) in each case. Further, the MIC (with Escherichia coli UB1005; in test [5]; in test [6]; in [7]; in [8]; in test [9]) was 29.3 µM (≈ 63.9 µg/mL) throughout. Besides, the minimal inhibitory concentration (MIC) in [10] stood at 29.3 µM (≈ 63.9 µg/mL).
Regarding `CC(C)C[C@H](NC(=O)[C@H](CC(C)C)NC(=O)[C@H](CC(C)C)NC(=O)[C@@H]1CCCN1C(=O)[C@H](CC(C)C)NC(=O)[C@@H](N)Cc1ccccc1)C(=O)N[C@@H](C)C(=O)NCC(=O)N[C@@H](CC(C)C)C(=O)N1CCC[C@H]1C(=O)N[C@@H](CC(C)C)C(=O)N[C@@H](CCCCN)C(=O)N[C@@H](CC(C)C)C(=O)N[C@H]1CSSC[C@@H](C(=O)O)NC(=O)[C@H](CCCCN)NC(=O)[C@H](CCCCN)NC(=O)[C@H](Cc2ccccc2)NC(=O)[C@H](CC(C)C)NC(=O)[C@H](Cc2ccccc2)NC1=O` [FLPLLLAGLPLKLCFLFKKC], the MIC in [11] is 21.9 µM (≈ 50 µg/mL); in test [12], 21.9 µM (≈ 50 µg/mL); in test [13] it was at least 43.9 µM; in test [14] it was at least 43.9 µM; in test [15], 2.74 µM (≈ 6.24 µg/mL); in test [16], at least 43.9 µM. Besides, the minimal inhibitory concentration (MIC) in [17] was over 43.9 µM; in [18], at least 43.9 µM; in test [19], 5.49 µM (≈ 12.5 µg/mL); in test [20], 21.9 µM (≈ 50 µg/mL).
Take `CC[C@H](C)[C@H](NC(=O)CNC(=O)[C@@H](NC(=O)[C@H](Cc1cnc[nH]1)NC(=O)[C@H](CCCCN)NC(=O)[C@H](CCCCN)NC(=O)[C@H](CC(C)C)NC(=O)[C@H](CCCCN)NC(=O)[C@H](Cc1c[nH]c2ccccc12)NC(=O)[C@@H](N)CCCCN)[C@@H](C)CC)C(=O)NCC(=O)N[C@@H](CCCCN)C(=O)N[C@@H](Cc1cnc[nH]1)C(=O)N[C@@H](Cc1ccccc1)C(=O)N[C@@H](CC(C)C)C(=O)N[C@@H](CO)C(=O)N[C@@H](C)C(=O)N[C@@H](CCCCN)C(=O)N[C@@H](CCCCN)C(=O)N[C@@H](Cc1ccccc1)C(N)=O` [KWKLKKHIGIGKHFLSAKKF]: the minimum inhibitory concentration (MIC) in test [21] is 8 µM and 4 µM.
With `NC(=O)[C@H](Cc1ccccc1)NC(=O)[C@H](Cc1c[nH]c2ccccc12)NC(=O)[C@H](CCCN=C(N)N)NC(=O)[C@H](Cc1c[nH]c2ccccc12)NC(=O)[C@H](Cc1c[nH]c2ccccc12)NC(=O)[C@H](Cc1c[nH]c2ccccc12)NC(=O)[C@H](CCCN=C(N)N)NC(=O)[C@H](Cc1c[nH]c2ccccc12)NC(=O)[C@@H](N)Cc1ccccc1` [FWRWWWRWF], the MIC is at least 32 µM in [22]; at least 32 µM in [23]; 64 µM (≈ 99.5 µg/mL) in test [24]; 2 µM (≈ 3.11 µg/mL) in test [25]; at least 32 µM in the test with Escherichia coli 780; at least 64 µM in the test on Escherichia coli 804. The MIC in test [26] is 16 µM (≈ 24.9 µg/mL); in [27], at least 128 µM; in test [28] it was at least 128 µM; in [29], over 128 µM; in [17] it was 128 µM (≈ 199 µg/mL); in test [30], 8 µM (≈ 12.4 µg/mL). Further, the MIC with Staphylococcus aureus 75 is 8 µM (≈ 12.4 µg/mL); in test [31], 4 µM (≈ 6.22 µg/mL); in test [20] it was 4 µM (≈ 6.22 µg/mL).
With `CSCC[C@H](NC(=O)[C@H](C)NC(=O)[C@H](CCCN=C(N)N)NC(=O)[C@H](CCCCN)NC(=O)[C@H](Cc1c[nH]c2ccccc12)NC(=O)[C@H](CCC(N)=O)NC(=O)[C@H](Cc1ccccc1)NC(=O)[C@@H](N)CS)C(=O)N[C@@H](CCCN=C(N)N)C(=O)N[C@@H](CCCCN)C(=O)N[C@H](C(=O)N[C@@H](CCCN=C(N)N)C(N)=O)C(C)C` [CFQWKRAMRKVR], the MIC with Bacillus cereus PCM 2003 is at least 155 µM; in test [32], over 155 µM; in test [33] it was at least 155 µM; with Candida krusei DSM 6128, at least 155 µM; in the test on Candida tropicalis it was at least 155 µM; in test [34], 9.94 µM (≈ 16 µg/mL). Besides, the MIC is at least 77.7 µM in test [35], 39.2 µM (≈ 63 µg/mL) in test [36] and 2.49 µM (≈ 4 µg/mL) in [20].
